Results from patent publication US12419862B2, “Use of a cathepsin s inhibitor against the formation of anti-drug antibodies” (Hoffmann-La Roche Inc., priority 2018, dated 2025).
“Also recorded” adds a separate entry of the source.

What was measured:
[1] = tested on: adalimumab-specific IgG response; assay: ADA against adalimumab in hIgG1 Tg mice, ELISA (Example 1, 28 days); format: in vivo, C57BL/6-Tg (hIgG1,k,l) mice; details: 40 mg/kg/day via food admix from one day before first immunization until day 28, vs vehicle
Source text: For immunogenicity assessment, we used the previously described human IgG1 immune-tolerant mouse model (Bessa, Boeckle et al. Pharm Res 2015, 32(7): 2344-2359). Since this human IgG transgenic mouse is tolerant to a broad range of human IgG1 antibodies (Abs), ADA responses elicited in this system are taken to reflect intrinsic immunogenic attributes of the eliciting Ab compounds also expected to cause ADA in humans.
15-week-old mice C57BL/6 wild type and C57BL/6-Tg (hIgG1,k,l) were purchased from Taconic (Denmark) and housed at the animal facilities under a 12 hour (h) light 12 h dark cycle with cycles of air ventilation and free access to water and food. 7×10 μg of CEA-112v or 7×10 μg of Humira (Adalimumab, Abbvie Germany GmbH) were injected respectively at day 0, 4, 7, 11, 14, 18 and 21 subcutaneously in the right flank or the left flank alternatively. The dosage of the cathepsin S inhibitor consumption was 40 mg/kg/day. […]
(§1) Nunc Maxisorp flat-bottom 96 well ELISA plates were coated with 100 μl per well of Humira or CEA-PGLALA (3.42 mg/ml, ID 8037) respectively at 5 μg/mL in NaHCO3100 mM buffer overnight at +4° C. […] 100 μl of substrate P-nitrophenyl phosphate ready to use (Life Technologies Cat no 002212) were added per well and after 10 min incubation at room temperature, the OD at 405 nm was read as an end-point measurement with a Versamax ELISA reader.

[2] = tested on: high affinity NP-specific IgG response; assay: T-cell dependent NP-specific IgG response after NP-OVAL immunization, ELISA (Example 2); format: in vivo, mice; details: 40 mg/kg/day via food admix from two days before NP-OVAL immunization until day 35, vs vehicle
Procedure: 6 to 8-weeks-old female mice C57BL/6-Tg (hIgG1,k,l) were purchased from Charles River Laboratories (Germany) and housed at the animal facilities in room with air-conditioned under a 12 hours light/dark cycle in macrolon boxes with enriched environment and free access to water and food. The mice were injected at day −2 subcutaneously with 20 μg/mouse of NP-OVAL (4-Hydroxy-3-nitrophenylacetyl hapten conjugated to ovalbumin, Biosearch Technologies, USA, Batch No 060368) with adjuvant (Alhydrogel, InvivoGen #vac-alu-250) at the both flanks or without adjuvant at day 28. The dosage of (2S,4R)-4-[4-(1-methyl-1H-pyrazol-4-yl)-2-trifluoromethyl-benzenesulfonyl]-1-(1-trifluoromethyl-cyclopropanecarbonyl)-pyrrolidine-2-carboxylic acid (1-cyano-cyclopropyl)-amide consumption was 0 (vehicle), 1, 10, 40 mg/kg/day. […]
as §1, with “of NP(4)-BSA (Biosearch Technologies N-5050L; 1 mg/mL)” for “of Humira or CEA-PGLALA (3.42 mg/ml, ID 8037) respectively”, “at 1” for “at 5”, “buffer and incubated” for “buffer”, “(Life Technologies,” for “(Life Technologies”

Cn1cc(-c2ccc(S(=O)(=O)[C@@H]3C[C@@H](C(=O)NC4(C#N)CC4)N(C(=O)C4(C(F)(F)F)CC4)C3)c(C(F)(F)F)c2)cn1 [cathepsin S inhibitor, (2S,4R)-4-[4-(1-methyl-1H-pyrazol-4-yl)-2-trifluoromethyl-benzenesulfonyl]-1-(1-trifluoromethyl-cyclopropanecarbonyl)-pyrrolidine-2-carboxylic acid (1-cyano-cyclopropyl)-amide]
ADA to adalimumab (adalimumab-specific IgG) [1]: reduces ADA to adalimumab; also recorded: reduced ADA levels compared to vehicle treated animals | NP-specific IgG levels (T-cell dependent IgG response against NP) [2]: significantly reduces NP-specific IgG levels | NP-specific IgG levels (T-cell dependent IgG response against NP) ([2]; listed as cathepsin S antagonist): effectively abrogating the T-cell dependent IgG response against NP
